From US20150374705A1, “Substances for treatment or relief of pain” (Shanghai Institues for Biological Sciences, priority 2012, published 2015)
Entries after “also recorded” stand apart in the source; their conditions may differ. Like-named read-outs stand apart in the source and are kept apart here.

Columns and labels:
[1] = system: SNI model rats (neuropathic pain); experiment: Spared nerve injury (SNI) model, neuropathic pain, mechanical pain threshold; assay type: in vivo; conditions: rat; for Neuropathic pain (SNI model), analgesic effect: 3 mg/kg subcutaneous, 14 days after SNI, 1 hour after administration
Method: Male SD rats (200-250 g) were used, 6 per group in the cage. All the animals were placed under 12 hours light/cycle (i.e. 12 hours light and 12 hours dark in each day), free to food and water. All the experiments were conducted under the condition that the observers were blind to pharmaceutical treatment.
Spared nerve injury model (SNI): 10% chloral hydrate was injected intraperitoneally to anesthetize rats. […] The muscle was longitudinally separated to expose the core of sciatic nerve and the branching below: tibial nerve, common peroneal nerve and sural nerve. The tibial nerve and common peroneal nerve were ligatured and cut and small sural nerve was retained, meanwhile preventing any injury. The muscle and skin were sutured layer by layer, and then antibiotics were injected intraperitoneally for antibacterial purpose. For detailed methods, please refer to Decosterd I and Woolf C J. Spared nerve injury: an animal model of persistent peripheral neuropathic pain. 2000 August; Pain 87(2):149-58.
Method for detecting mechanical hyperalgesia in rats: firstly CFA solution was injected in the thenar of rats. After 24 hours, mechanical hyperalgesia quantitative detection was adopted to measure the paw withdrawal of rats to normal and harmless mechanical stimulation. Evaluation was conducted according to reference (Chaplan S R et al., Quantitative assessment of tactile allodynia in the rat paw. J Neurosci Methods. 1994 July; 53(1):55-63). In this method, the von Frey fibers with different bending force (equivalent to the range of 1-50 g force) were used to apply harmless mechanical stimulation. The rats were placed in organic glass box with metal mesh plate, and the von Frey fibers were applied on the surface of leg thenar. The von Frey fibers were applied vertically to the surface of thenar to generate the force that will trigger slight resistance to the leg. 2-3 seconds were maintained for every leg thenar. If the leg withdrew suddenly, positive records were recorded. The threshold was the mean of the weight that caused 50% paw withdrawal response (5-6 paw withdrawal/10 stimulations) in overall 10 stimulations.
Compounds MRK 016, C2, C3, C4, C5, C6, C7, C8 or α5IA (A5I) were dissolved in 70% PGE400 (PGE400:water=70:30 in volume). For injection dose, MRK016 was 2 mg/kg body weight; A5I was 3 mg/kg body weight; C2, C3, C4, C5, C6, C7 and C8 were 3 mg/kg body weight.
MRK016-M3 was dissolved in 90% PGE400 (PGE400:water=90:10 in volume). The doses were 10 mg/kg, 3 mg/kg, 1 mg/kg and 0.3 mg/kg, respectively for oral administration.
The method for behavioral data statistics was unpaired t-test. *, p<0.05, represents significant difference.

[2] = system: CFA induced inflammatory pain model rats (mechanical pain); experiment: CFA induced inflammatory pain model, mechanical pain threshold; assay type: in vivo; conditions: rat, 3 mg/kg injection, 7 days after CFA, 1 hour after administration
[3] = system: CFA induced inflammatory pain model rats (heat pain); experiment: CFA induced inflammatory pain model, heat pain threshold; assay type: in vivo; conditions: rat, 3 mg/kg injection, 3 days after CFA, 1 hour after administration
[4] = Tissue distribution, brain/plasma ratio by LC-MS; assay type: in vivo, rat; conditions: for Kp at 1 h: sc, 3 mg/kg, subcutaneous injection, 1 hour after injection; for Kp at 1 h / Kp: rat
Method: The second method was to measure the tissue distribution of the substance to be measured in animal tissues. Firstly the candidate substance was administrated to animals by injection (or oral administration). The brain tissue and plasma tissue were extracted 0.25-2.0 hours after injection. liquid Chromatograph Mass SpectrometerL-MS was used to measure the concentration of the drug. If the brain/plasma ratio of the compound is less than 0.5, then the candidate substance is a potential drug for treating pain with fewer side effects.
Meanwhile, the inventors detected the distribution of these compounds in the tissue of rats. Firstly the substances to be measured were subcutaneously injected into the body of animals. Then brain tissue and plasma tissue were extracted 1 hour after injection. Ls-MS was used to measure the concentration of drugs. If the brain/plasma ratio of the compound is less than 0.1, then the candidate substance is a potential drug for treating pain with fewer side effects.

[5] = brain and plasma extracted 0.25-2.0 hours after injection, LC-MS

| SMILES | Neuropathic pain (SNI model), analgesic effect [1] | CFA induced inflammatory pain model (mechanical pan), analgesic effect [2] | CFA induced inflammatory pain model (heat pain), analgesic effect [3] | Kp at 1 h ([4]; brain and plasma, LC-MS) | also measured |
| --- | --- | --- | --- | --- | --- |
| Cc1ncn2c1Cn1ncnc1-c1cc(Br)ccc1-2 | Significant analgesic effect | Significant analgesic effect | Significant analgesic effect | < 0.2 | – |
| FC(F)c1ncn2c1Cn1ncnc1-c1cc(I)ccc1-2 | Significant analgesic effect | Significant analgesic effect | Significant analgesic effect | – | – |
| Cc1ncn2c1Cn1ncnc1-c1cc(I)ccc1-2 | Significant analgesic effect | Significant analgesic effect | Significant analgesic effect | < 0.1 | – |
| Clc1ncn2c1Cn1ncnc1-c1cc(I)ccc1-2 | Significant analgesic effect | Significant analgesic effect | Significant analgesic effect | < 0.1 | – |
| Clc1ccc2c(c1)-c1ncnn1Cc1c(Cl)ncn1-2 | Significant analgesic effect | Significant analgesic effect | Significant analgesic effect | – | Kp at 1 h ([4]; in vivo, LC-MS): > 0.2 |
| FC(F)c1ccc2c(c1)-c1ncnn1Cc1c(Cl)ncn1-2 | Significant analgesic effect | Significant analgesic effect | Significant analgesic effect | – | – |
| Cc1ncn2c1Cn1ncnc1-c1cc(C(F)F)ccc1-2 | Significant analgesic effect | Significant analgesic effect | Significant analgesic effect | – | – |
| Cc1ncn2c1Cn1ncnc1-c1cc(Cl)ccc1-2 | Significant analgesic effect | Significant analgesic effect | Significant analgesic effect | 0.2 | – |
| CC(C)(C)C1C(OCc2ccccn2)=NN2C(c3cc(CO)on3)=NN=CC12 (stereo not drawn) [Compound C2, (3-(3-tert-butyl-2-(2-pyridylmethoxyl)-3,3a-2H-pyrazolo[1,5-d][1,2,4]triazin-7-yl)isoxazole-5-yl)methanol] | – | – | – | – | Neuropathic pain (SNI model), analgesic effect ([1]; 3 mg/kg): efficiently treat pain; also recorded: efficiently suppressed neuropathic pain; CFA induced inflammatory pain model (mechanical pan), analgesic effect ([2]; 3 mg/kg): efficiently treat pain; also recorded: efficiently suppressed heat pain or mechanical pain response; CFA induced inflammatory pain model (heat pain), analgesic effect ([3]; 3 mg/kg): efficiently treat chronic pain; also recorded: efficiently suppressed heat pain or mechanical pain response |
| CC(C)(C)C1C(OCc2cccnc2)=NN2C(c3cc(CO)on3)=NN=CC12 (stereo not drawn) [Compound C3, (3-(3-tert-butyl-2-(3-pyridylmethoxyl)-3,3a-2H-pyrazolo[1,5-d][1,2,4]triazin-7-yl)isoxazole-5-yl)methanol] | – | – | – | – | Neuropathic pain (SNI model), analgesic effect ([1]; 3 mg/kg): efficiently treat pain; also recorded: efficiently suppressed neuropathic pain; CFA induced inflammatory pain model (mechanical pan), analgesic effect ([2]; 3 mg/kg): efficiently treat pain; also recorded: efficiently suppressed heat pain or mechanical pain response; CFA induced inflammatory pain model (heat pain), analgesic effect ([3]; 3 mg/kg): efficiently treat chronic pain; also recorded: efficiently suppressed heat pain or mechanical pain response |
| OCc1cc(-c2nnc3c4ccccc4c(OCc4cccnc4)nn23)no1 [Compound C6, {3-[6-(Pyridin-3-ylmethoxy)-[1,2,4]triazolo[3,4-a]phthalazin-3-yl]-isoxazol-5-yl}-methanol] | – | – | – | – | Neuropathic pain (SNI model), analgesic effect ([1]; 3 mg/kg): efficiently inhibit nociceptive response; also recorded: efficiently suppressed neuropathic pain; CFA induced inflammatory pain model (mechanical pan), analgesic effect ([2]; 3 mg/kg): efficiently inhibit nociceptive response; also recorded: efficiently suppressed heat pain or mechanical pain response; CFA induced inflammatory pain model (heat pain), analgesic effect ([3]; 3 mg/kg): efficiently inhibit nociceptive response; also recorded: efficiently suppressed heat pain or mechanical pain response |
| OCc1cc(-c2nnc3c4ccccc4c(OCc4ccncc4)nn23)no1 [Compound C7, {3-[6-(Pyridin-4-ylmethoxy)-[1,2,4]triazolo[3,4-a]phthalazin-3-yl]isoxazol-5-yl}-methanol] | – | – | – | – | Neuropathic pain (SNI model), analgesic effect ([1]; 3 mg/kg): efficiently inhibit nociceptive response; also recorded: efficiently suppressed neuropathic pain; CFA induced inflammatory pain model (mechanical pan), analgesic effect ([2]; 3 mg/kg): efficiently inhibit nociceptive response; also recorded: efficiently suppressed heat pain or mechanical pain response; CFA induced inflammatory pain model (heat pain), analgesic effect ([3]; 3 mg/kg): efficiently inhibit nociceptive response; also recorded: efficiently suppressed heat pain or mechanical pain response |
| FC(F)c1ncn2c1Cn1ncnc1-c1cc(Br)ccc1-2 [drawing 27] | – | – | – | – | Passing blood brain barrier [4, 5]: slightly passing blood brain barrier; Kp ([4]; other: injection (or oral administration), brain and plasma extracted 0.25-2.0 hours after injection, LC-MS, read-out: brain/plasma ratio): < 0.5 |
| Clc1ncn2c1Cn1ncnc1-c1cc(Br)ccc1-2 [drawing 28] | – | – | – | – | Passing blood brain barrier [4, 5]: more slightly passing blood brain barrier; Kp ([4]; in vivo): < 0.5 |
| Clc1ncn2c1Cn1ncnc1-c1cc(Br)ccc1-2 [drawing 57] | Significant analgesic effect | Significant analgesic effect | Significant analgesic effect | < 0.1 | – |
| FC(F)c1ncn2c1Cn1ncnc1-c1cc(Br)ccc1-2 [drawing 58] | Significant analgesic effect | Significant analgesic effect | Significant analgesic effect | > 0.2 | – |
| NCC1(CC(=O)O)CCCCC1 [gabapentin] | – | – | – | – | Suppression of neuropathic pain ([1]; 11 days after SNI model): efficiently suppressed neuropathic pain |
